In publication PMC5142622, “Attenuation of the Type IV Pilus Retraction Motor Influences Neisseria gonorrhoeae Social and Infection Behavior” (mBio, 2016):

Biological target: PilT (Neisseria gonorrhoeae, UniProt Q53432)
Settings: MgCl2 5 mM, Tris 150 mM pH 8.5, NaCl 150 mM, 37 °C; variable ATP, 10 min

PilT, sequence (Q53432 entry or part of it): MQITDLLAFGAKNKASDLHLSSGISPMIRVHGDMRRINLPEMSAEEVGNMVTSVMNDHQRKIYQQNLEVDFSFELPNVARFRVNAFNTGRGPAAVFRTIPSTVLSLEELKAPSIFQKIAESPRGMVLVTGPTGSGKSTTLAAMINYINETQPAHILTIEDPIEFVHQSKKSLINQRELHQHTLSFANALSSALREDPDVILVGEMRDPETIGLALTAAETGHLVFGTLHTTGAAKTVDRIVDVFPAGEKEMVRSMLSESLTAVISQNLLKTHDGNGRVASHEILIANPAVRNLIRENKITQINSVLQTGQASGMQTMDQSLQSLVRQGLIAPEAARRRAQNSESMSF

In the case of `Nc1ncnc2c1ncn2[C@@H]1O[C@H](COP(=O)(O)OP(=O)(O)OP(=O)(O)O)[C@@H](O)[C@H]1O` [ATP], the Km was 0.38 nmol.
